Values of other authors in patent US20170258746A1, “ACETIC ACID/THYMOL COMPOSITIONS AND THEIR USE IN THE TREATMENT OF ONYCHOMYCOSIS” (Dr. Paul's Enterprises, LLC, priority 2008, published 2017).

Key:
onychomycosis = conditions: oral, Arch. Dermatol. 134(12) (December 1998)
[1] = oral, in children; American Family Physician vol. 63, no. 4, Feb. 15, 2001

| Structure (SMILES) | disease-free nail, % of patients (onychomycosis) | toxicity [1] |
| --- | --- | --- |
| CN(C/C=C/C#CC(C)(C)C)Cc1cccc2ccccc12 [terbinafine] | 35-50% |  |
| COC1=CC(=O)C[C@@H](C)[C@]12Oc1c(Cl)c(OC)cc(OC)c1C2=O [griseofulvin] |  | some level of toxicity |
